Data on seven compounds can be found in patent US6395750B1, “Drugs for the treatment of malignant tumors” (Active Biotech AB, priority 1999, dated 2002).

Marks after values point to notes of the source that are not given here.

The subject of data set [1] is Dunning R-3327 AT-1 tumour. Put plainly: Primary screen: tumour growth inhibition, Dunning R-3327 AT-1 prostatic cancer transplanted sc. It is filed as in vivo, rat. Here is the method: The compounds of general formula (I) were assayed for their capacity to inhibit of growth of the Dunning R-3327 AT-1 tumour, a prostatic rat cancer.
R-3327 AT-1 Prostatic cancer in man is an angiogenic type of solid tumour. The Dunning R-3327 AT-1 is a prostatic cancer of the rat and suits as an experimental animal model for this disease. The AT-1 tumour is serially transplanted subcutaneously (sc) on syngeneic rats of the Copenhagen strain. Small pieces of the tumour are transplanted sc to recipient rats and treatment of the tumour bearing rats start when the tumours are easily measurable approximately on day 10 after transplantation. Doses of the compounds are given either orally or parentally 5 days a week for four weeks. The tumour growth and body weight gain are monitored during the experimental time.

Data set [2] is described as follows: Beagle Pain Syndrome, pro-inflammatory reaction (ESR, AP). It is filed as in vivo, beagle dog. To be noted: beagle dogs, five consecutive days.
The conditions of data set [3]: patients with renal cell carcinoma; cited from earlier work.
The conditions of data set [4]: beagle dog, literature; cited from earlier work.
In data set [5] the test system is Dunning R-3327 rat prostatic cancers. Conditions: literature report; cited from earlier work.
Setting [6] is: 8 mg/kg ip, treatment given on Day 11.

On to `CN(C(=O)c1c(O)c2c(Cl)cccc2n(C)c1=O)c1ccc(Cl)cc1` [B, N-methyl-N-(4-chloro-phenyl)-1,2-dihydro-4-hydroxy-5-chloro-1-methyl-2-oxo-quinoline-3-carboxamide], for which, in data set [1] (2 mg/kg po), the “% Tumour Weight Reduction” value is recorded as 28%.
On the same count and under the same terms, then `CSc1cccc2c1c(O)c(C(=O)N(C)c1ccc(F)cc1F)c(=O)n2C` [C, N-methyl-N-(2,4-difluoro-phenyl)-1,2-dihydro-4-hydroxy-5-thiomethyl-1-methyl-2-oxo-quinoline-3-carboxamide], with 39%.
`CCN(C(=O)c1c(O)c2c(Cl)cccc2n(C)c1=O)c1ccccc1` [Compound A, N-ethyl-N-phenyl-1,2-dihydro-4-hydroxy-5-chloro-1-methyl-2-oxo-quinoline-3-carboxamide]: the “% Tumour Weight Reduction” value in data set [1] (2 mg/kg sc) amounted to 37%. Moreover, in data set [2] (1 mg/kg p. o.), the “AP percentage change (Day 8 - baseline)” value is given as 25% and the “ESR percentage change (Day 8 - baseline)” value stood at 177%. Moreover, in data set [2] (10 mg/kg p. o.), the “AP percentage change (Day 8 - baseline)” value came to 109% and the “ESR percentage change (Day 8 - baseline)” value was determined as 515%.
Consider `Cc1cccc2c1c(N)c(C(=O)N(C)c1ccccc1)c(=O)n2C` [Compound D, N-methyl-N-phenyl-4-amino-1,2-dihydro-1,5-dimethyl-2-oxo-quinoline-3-carboxamide], for which the “% Tumour Weight Reduction” value in data set [1] (2 mg/kg sc) was determined as 38%.
Take `CN(C(=O)c1c(O)c2ccccc2n(C)c1=O)c1ccccc1` [Compound E, N-methyl-N-phenyl-1,2-dihydro-4-hydroxy-1-methyl-2-oxo-quinoline-3-carboxamide]: the “patients withdrawn or having dose reductions due to adverse events” value in data set [3] was 40%. In data set [1] (4 mg/kg sc), the “% Tumour Weight Reduction” value was found to be 30%. The “inhibition of growth of the Dunning R-3327 AT-1 tumour” value in data set [1] (4 mg/kg, positive treatment control) is 30%. The “induction of beagle pain syndrome (fever, myalgia, arthralgia, arteritis)” value in data set [4] is listed as “induces the beagle pain syndrome”. The antitumour effects entry in data set [5] is recorded as “antitumour effects”.
As for `COc1cccc2c1C(=O)c1c(O)c3c(c(O)c1C2=O)C[C@@](O)(C(=O)CO)C[C@@H]3O[C@H]1C[C@H](N)[C@H](O)[C@H](C)O1` [doxorubicin], the “% Tumour Weight Reduction” value in data set [1] (4 mg/kg ip, treatment given on Day 11) worked out at 0%. Further, in data set [1] (setting [6]), the “% Tumour Weight Reduction” value was 31^b) % and the body weight effect result was “^b)8 mg/kg of doxorubicin caused a body weight loss”.
With `CC[C@]1(O)C[C@@H]2CN(CCc3c([nH]c4ccccc34)[C@@](C(=O)OC)(c3cc4c(cc3OC)N(C)[C@H]3[C@@](O)(C(=O)OC)[C@H](OC(C)=O)[C@]5(CC)C=CCN6CC[C@]43[C@@H]65)C2)C1` [vinblastine], the “% Tumour Weight Reduction” value is on record as 0% in data set [1] (1 mg/kg iv, treatment given on Day 11) and “toxic” in data set [1] (4 mg/kg iv, treatment given on Day 11).
